According to patent publication US20230303513A1, “OXOPYRROLIDINE UREA FPR2 AGONISTS” (BRISTOL-MYERS SQUIBB COMPANY, priority 2020, published 2023):

Assays:
human FPR1 = human FPR1 (Homo sapiens (Human), UniProt P21462); assay: FPR1 cyclic adenosine monophosphate (cAMP) assay; type: cell-based; details: CHO cells overexpressing human FPR1; forskolin 10 μM, IBMX 200 μM; inhibition of cAMP production, HTRF; read-out: hFPR1 cAMP EC50
Source text: (§1) N-formyl peptide receptors (FPRs) are a family of chemo attractant receptors that facilitate leukocyte response during inflammation. FPRs belong to the seven-transmembrane G protein-coupled receptor superfamily and are linked to inhibitory G-proteins (Gi). Three family members (FPR1, FPR2 and FPR3) have been identified in humans and are predominantly found in myeloid cells with varied distribution and have also been reported in multiple organs and tissues. After agonist binding, the FPRs activate a multitude of physiological pathways, such as intra cellular signaling transduction, Ca^21 mobilization and transcription. The family interacts with a diverse set of ligands that includes proteins, polypeptides and fatty acid metabolites which activate both pro-inflammatory and pro-resolution downstream responses. FPR2 and FPR1 Cyclic Adenosine Monophosphate (cAMP) Assays were used to measure the activity of the compounds in this patent.
(§2) FPR2 and FPR1 Cyclic Adenosine Monophosphate (cAMP) Assays. A mixture of forskolin (5 μM final for FPR2 or 10 μM final for FPR1) and IBMX (200 μM final) were added to 384-well Proxiplates (Perkin-Elmer) pre-dotted with test compounds in DMSO (1% final) at final concentrations in the range of 0.020 nM to 100 μM. Chinese Hamster Ovary cells (CHO) overexpressing human FPR1 or human FPR2 receptors were cultured in F-12 (Ham's) medium supplemented with 10% qualified FBS, 250 μg/ml zeocin and 300 μg/ml hygromycin (Life Technologies). Reactions were initiated by adding 2,000 human FPR2 cells per well or 4,000 human FPR1 cells per well in Dulbecco's PBS (with calcium and magnesium) (Life Technologies) supplemented with 0.1% BSA (Perkin-Elmer). The reaction mixtures were incubated for 30 min at room temperature. The level of intracellular cAMP was determined using the HTRF HiRange cAMP assay reagent kit (Cisbio) according to manufacturer's instruction. Solutions of cryptate conjugated anti-cAMP and d2 flurorophore-labelled cAMP were made in a supplied lysis buffer separately. Upon completion of the reaction, the cells were lysed with equal volume of the d2-cAMP solution and anti-cAMP solution. After a 1-h room temperature incubation, time-resolved fluorescence intensity was measured using the Envision (Perkin-Elmer) at 400 nm excitation and dual emission at 590 nm and 665 nm. A calibration curve was constructed with an external cAMP standard at concentrations ranging from 1 μM to 0.1 μM by plotting the fluorescent intensity ratio from 665 nm emission to the intensity from the 590 nm emission against cAMP concentrations. The potency and activity of a compound to inhibit cAMP production was then determined by fitting to a 4-parametric logistic equation from a plot of cAMP level versus compound concentrations.

human FPR2 = human FPR2 (Homo sapiens (Human), UniProt P25090); assay: FPR2 cyclic adenosine monophosphate (cAMP) assay; type: cell-based; details: CHO cells overexpressing human FPR2; forskolin 5 μM, IBMX 200 μM; inhibition of cAMP production, HTRF; read-out: hFPR2 cAMP2 EC50
Source text: as §1, §2

human FPR2, sequence (P25090 whole entry): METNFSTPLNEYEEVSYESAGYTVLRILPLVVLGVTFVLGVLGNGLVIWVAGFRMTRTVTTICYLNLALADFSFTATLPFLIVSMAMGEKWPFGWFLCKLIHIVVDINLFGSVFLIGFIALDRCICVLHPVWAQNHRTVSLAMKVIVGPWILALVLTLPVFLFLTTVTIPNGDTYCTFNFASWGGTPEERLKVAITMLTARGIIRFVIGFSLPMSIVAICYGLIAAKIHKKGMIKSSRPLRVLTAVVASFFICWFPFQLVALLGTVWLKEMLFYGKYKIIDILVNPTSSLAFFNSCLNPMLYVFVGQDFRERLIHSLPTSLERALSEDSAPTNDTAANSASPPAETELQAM
human FPR1, sequence (P21462 whole entry): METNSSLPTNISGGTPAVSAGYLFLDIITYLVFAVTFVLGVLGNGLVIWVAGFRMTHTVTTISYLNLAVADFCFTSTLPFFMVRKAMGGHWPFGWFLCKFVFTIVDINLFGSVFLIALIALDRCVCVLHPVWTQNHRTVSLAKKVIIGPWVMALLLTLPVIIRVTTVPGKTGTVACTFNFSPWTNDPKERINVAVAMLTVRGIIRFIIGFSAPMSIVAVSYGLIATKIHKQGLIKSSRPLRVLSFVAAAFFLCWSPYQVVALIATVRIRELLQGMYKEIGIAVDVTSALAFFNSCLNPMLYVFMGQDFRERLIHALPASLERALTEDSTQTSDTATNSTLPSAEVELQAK

CNC(=O)C(C)Nc1ccnc(N2C[C@@H](c3c(F)cc(OC)cc3F)[C@H](NC(=O)N[C@H]3CC[C@H](C(F)F)CC3)C2=O)c1C(F)(F)F (single isomer, unassigned) [Example 76]
EC50 (human FPR1): > 1000 nM
EC50 (human FPR2): 23 nM

COc1cc(F)c([C@@H]2CN(c3ncccc3C(F)(F)F)C(=O)[C@H]2NC(=O)NC2CCc3cc(Cl)ccc3C2)c(F)c1 (some centres unmarked) [Example 43]
EC50 (human FPR1): 7.1 nM
EC50 (human FPR2): 6 nM

CCn1cccc(N2C[C@@H](c3ccc(OC)cc3)[C@H](NC(=O)NC3CCc4cc(Cl)ccc4C3)C2=O)c1=O (some centres unmarked) [Example 6]
EC50 (human FPR1): 0.1 nM
EC50 (human FPR2): 0.4 nM

COc1cc(F)c([C@@H]2CN(c3nccc(NC4CCOC4)c3C(F)(F)F)C(=O)[C@H]2NC(=O)N[C@H]2CC[C@H](C(F)F)CC2)c(F)c1 (single isomer, unassigned) [Example 99]
EC50 (human FPR1): 730 nM
EC50 (human FPR2): 6.2 nM

COc1cc(F)c([C@H]2[C@H](NC(=O)NC3CCc4cc(OC)ccc4C3)C(=O)N(c3cccn(CCO)c3=O)[C@H]2C)c(F)c1 (single isomer, unassigned) [Example 90]
EC50 (human FPR1): 3.7 nM
EC50 (human FPR2): 4 nM

COc1cc(F)c([C@@H]2CN(c3nccc(N4C[C@@H]5C[C@H]4CN5C)c3C(F)(F)F)C(=O)[C@H]2NC(=O)N[C@H]2CC[C@H](C(F)F)CC2)c(F)c1 (single isomer, unassigned) [Example 96]
EC50 (human FPR1): 3400 nM
EC50 (human FPR2): 4.6 nM

COc1ccc([C@H]2C[C@@H]2NC(=O)N[C@@H]2C(=O)N(c3ncccc3C(F)(F)F)C[C@H]2c2c(F)cc(OC)cc2F)cc1 [Example 35]
EC50 (human FPR1): 62 nM
EC50 (human FPR2): 4.5 nM

COc1cc(F)c([C@@H]2CN(c3nccc(N4CCN5CCCC5C4)c3C(F)(F)F)C(=O)[C@H]2NC(=O)N[C@H]2CC[C@H](C(F)F)CC2)c(F)c1 (single isomer, unassigned) [Example 103]
EC50 (human FPR1): 2100 nM
EC50 (human FPR2): 17 nM

COc1cc(F)c([C@@H]2CN(c3nccc(N4CCN(S(C)(=O)=O)CC4)c3C(F)(F)F)C(=O)[C@H]2NC(=O)N[C@H]2CC[C@H](C(F)F)CC2)c(F)c1 [Example 88]
EC50 (human FPR1): > 10000 nM
EC50 (human FPR2): 9.1 nM

COc1cc(F)c([C@H]2[C@H](NC(=O)NC3CCc4cc(OC)ccc4C3)C(=O)N(c3ncccc3OC)[C@H]2C)c(F)c1 (some centres unmarked) [Example 18]
EC50 (human FPR1): 0.2 nM
EC50 (human FPR2): 1.8 nM

COc1cc(F)c([C@@H]2CN(c3ncccc3C(F)(F)F)C(=O)[C@H]2NC(=O)NC2CCc3ccccc3C2)c(F)c1 (some centres unmarked) [Example 24]
EC50 (human FPR1): 18 nM
EC50 (human FPR2): 2.8 nM

COCCn1ccc(C)c(N2C[C@@H](c3c(F)cc(OC)cc3F)[C@H](NC(=O)NC3CCc4cc(Cl)ccc4C3)C2=O)c1=O (some centres unmarked) [Example 22]
EC50 (human FPR1): 2.1 nM
EC50 (human FPR2): 2.7 nM

COCC(CO)n1cccc(N2C[C@@H](c3c(F)cc(OC)cc3F)[C@H](NC(=O)NC3CCc4cc(OC)ccc4C3)C2=O)c1=O (single isomer, unassigned) [Example 2]
EC50 (human FPR1): 40 nM
EC50 (human FPR2): 20 nM

COCC(CO)n1cccc(N2C[C@@H](c3c(F)cc(OC)cc3F)[C@H](NC(=O)NC3CCc4cc(OC)ccc4C3)C2=O)c1=O (some centres unmarked) [Example 81]
EC50 (human FPR1): 1.5 nM
EC50 (human FPR2): 5.9 nM

COCCn1cccc(N2C(=O)[C@@H](NC(=O)N[C@H]3CC[C@H](C(F)F)CC3)[C@H](c3c(F)cc(OC)cc3F)[C@@H]2C)c1=O [Example 105]
EC50 (human FPR1): 1200 nM
EC50 (human FPR2): 17 nM

COc1cc(F)c([C@H]2[C@H](NC(=O)N[C@H]3CC[C@H](C(F)F)CC3)C(=O)N(c3ncccc3OC)[C@H]2C)c(F)c1 [Example 48]
EC50 (human FPR1): 600 nM
EC50 (human FPR2): 7.4 nM

COCCn1ccc(C)c(N2C[C@@H](c3c(F)cc(OC)cc3F)[C@H](NC(=O)NC3CCc4cc(OC)ccc4C3)C2=O)c1=O (some centres unmarked) [Example 7]
EC50 (human FPR1): 0.7 nM
EC50 (human FPR2): 0.5 nM

COc1cc(F)c([C@@H]2CN(c3nccc(NCC4CCCO4)c3C(F)(F)F)C(=O)[C@H]2NC(=O)N[C@H]2CC[C@H](C(F)F)CC2)c(F)c1 (some centres unmarked) [Example 93]
EC50 (human FPR1): 1700 nM
EC50 (human FPR2): 14 nM

COCCn1cccc(N2C[C@@H](c3c(F)cc(OC)cc3F)[C@H](NC(=O)NC3CCc4cc(Cl)ccc4C3)C2=O)c1=O (some centres unmarked) [Example 17]
EC50 (human FPR1): 0.6 nM
EC50 (human FPR2): 1.7 nM

COCCn1cccc(N2C(=O)[C@@H](NC(=O)NC3CCc4cc(OC)ccc4C3(C)C)[C@H](c3c(F)cc(OC)cc3F)[C@@H]2C)c1=O (some centres unmarked) [Example 62]
EC50 (human FPR1): 23 nM
EC50 (human FPR2): 36 nM

COc1cc(F)c([C@@H]2CN(c3nccc(N4CCC(C)(O)C4)c3C(F)(F)F)C(=O)[C@H]2NC(=O)N[C@H]2CC[C@H](C(F)F)CC2)c(F)c1 (single isomer, unassigned) [Example 92]
EC50 (human FPR1): > 5000 nM
EC50 (human FPR2): 44 nM

CCn1cccc(N2C[C@@H](c3ccc(OC)cc3)[C@H](NC(=O)NC3CCc4cc(Cl)ccc4C3)C2=O)c1=O (some centres unmarked) [Example 9]
EC50 (human FPR1): 6 nM
EC50 (human FPR2): 0.7 nM
